Data on 17 molecules can be found in patent publication US20230081426A1, “COMPOUNDS AND METHODS FOR KRAS MODULATION AND INDICATIONS THEREFOR” (Plexxikon Inc., priority 2020, published 2023).

For orientation: IC50 means the point on the concentration scale where inhibition reaches its midpoint.

Assay [1] concerns the target T1, G12D-mutant human KRAS (amino acid residues 1-188) (Homo sapiens, UniProt P01116, G12D).
T1 construct: G12D or G12C-mutant human KRAS (amino acid residues 1-188) with FLAG tag; made in house; host or cells: E. coli
Briefly: KRAS Binding Disruption Assay (AlphaScreen; biotinylated KRpep-2d analogue or RAF1-RBD), G12D. The settings on record: for IC50: geometric mean, read-out: KRAS GMean IC50 (uM) MUTATION: G12D. Put shortly: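 AlphaScreen readout: signal falls as compound displaces biotinylated KRpep-2d analogue or RAF1-RBD from mutant KRAS. Both partners at 5-20 nM, 1 h binding at 25° C, then 10 μg/mL Anti-Flag acceptor and streptavidin donor beads for 1 h. IC50 by nonlinear regression of % inhibition.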

Assay [2] concerns the target T2, G12C-mutant human KRAS (amino acid residues 1-188) (Homo sapiens, UniProt P01116, G12C).
T2 construct: G12D or G12C-mutant human KRAS (amino acid residues 1-188) with FLAG tag; made in house; host or cells: E. coli
Briefly: KRAS Binding Disruption Assay (AlphaScreen; biotinylated KRpep-2d analogue or RAF1-RBD), G12C. The conditions noted are these: geometric mean, read-out: KRAS GMean IC50 (uM) MUTATION: G12C. On the procedure: Compound binding disrupts the interaction of KRpep-2d or RAF1-RBD with KRAS, leading to a decrease in Alpha signal.
All assay components were prepared in 20 mM HEPES (pH 7.5), 100 mM NaCl, 5 mM MgCl2, 0.01% Tween-20, and 0.01% BSA. Biotinylated analogues of KRpep-2d were custom synthesized. The binding disruption assays were performed using 5-20 nM of mutant KRAS and 5-20 nM of either biotinylated KRpep-2d analogue or RAF1-RBD. 19 μL of KRAS protein and 4 μL of biotinylated KRpep-2d or RAF1-RBD were added to the wells of a 384-well plate containing 1 μL of various concentrations of test compound or DMSO vehicle. 16 wells containing KRAS, biotinylated KRpep-2d or RAF1-RBD, and 5% DMSO served as high controls. 16 wells containing KRAS only and 5% DMSO served as low controls. Binding reactions were incubated for 1 hour at 25° C., then Anti-Flag Acceptor and Streptavidin Donor Alpha beads were added at a final concentration of 10 μg/mL for an additional hour at room temperature. Alpha signal was read out on a Perkin Elmer Envision HTS instrument. The percentage inhibition at individual compound concentrations relative to high and low controls was calculated. The data were analyzed by using nonlinear regression to generate IC50 values.

Structures are written as SMILES. Where two headings read alike, the source gives them in different places.

T1 sequence (P01116 1-188 isoform P01116-2 G12D): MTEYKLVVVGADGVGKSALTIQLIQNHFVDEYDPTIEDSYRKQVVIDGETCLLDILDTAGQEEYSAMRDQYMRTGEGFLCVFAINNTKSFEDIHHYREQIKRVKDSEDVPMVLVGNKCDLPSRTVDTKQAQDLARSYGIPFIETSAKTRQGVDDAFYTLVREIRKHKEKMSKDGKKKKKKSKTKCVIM
T2 sequence (P01116 1-188 isoform P01116-2 G12C): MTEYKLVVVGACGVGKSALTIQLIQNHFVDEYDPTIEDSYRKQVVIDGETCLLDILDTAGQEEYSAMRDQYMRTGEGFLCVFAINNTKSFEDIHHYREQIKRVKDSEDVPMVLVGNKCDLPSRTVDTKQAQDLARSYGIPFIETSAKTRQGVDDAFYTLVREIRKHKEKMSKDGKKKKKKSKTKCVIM

With `CC(=O)NCCCN1CCCC1COc1nc(N2C[C@H]3CC[C@@H](C2)N3)c2ccc(-c3cc(O)cc4ccccc34)c(F)c2n1` (mixture of isomers) [P-0674, N-(3-((RS)-2-(((4-((1R,5S)-3,8-diazabicyclo[3.2.1]octan-3-yl)-8-fluoro-7-(3-hydroxynaphthalen-1-yl)quinazolin-2-yl)oxy)methyl)pyrrolidin-1-yl)propyl)acetamide], the IC50 in assay [1] (KRAS G12D) and in assay [2] was 0.0001 to 10 µM each time.
On to `Cc1cc(CN2[C@@H]3CC[C@H]2CN(c2nc(OCC45CCCN4CCC5)nc4cc(-c5cc(O)cc6ccccc56)ccc24)C3)no1` [P-0006, 4-(4-((1R,5S)-8-((5-methylisoxazol-3-yl)methyl)-3,8-diazabicyclo[3.2.1]octan-3-yl)-2-((tetrahydro-1H-pyrrolizin-7a(5H)-yl)methoxy)quinazolin-7-yl)naphthalen-2-ol], for which the values for the concentration for half-maximal inhibition (IC50) in assay [1] (KRAS G12D) and in assay [2] were 0.0001 to 10 µM and 10 to 100 µM, respectively.
In the same order, the values of `CCc1cc2c(N3C[C@H]4CC[C@@H](C3)N4)nc(OC[C@@H]3CCCN3C)nc2c(F)c1-c1cc(O)cc2ccccc12` [P-0013, 4-(4-((1R,5S)-3,8-diazabicyclo[3.2.1]octan-3-yl)-6-ethyl-8-fluoro-2-(((S)-1-methylpyrrolidin-2-yl)methoxy)quinazolin-7-yl)naphthalen-2-ol] are 0.0001 to 10 µM and 0.0001 to 10 µM.
On to `CN(C)CCNc1nc(N2C[C@H]3CC[C@@H](C2)N3)c2ccc(-c3cc(O)cc4ccccc34)cc2n1` [P-0022, 4-(4-((1R,5S)-3,8-diazabicyclo[3.2.1]octan-3-yl)-2-((2-(dimethylamino)ethyl)amino)quinaz-olin-7-yl)naphthalen-2-ol], for which the IC50 in assay [1] (KRAS G12D) was 0.0001 to 10 µM; in assay [2] it was 10 to 100 µM.
As to `CN(C)CCOc1nc(N2C[C@H]3CC[C@@H](C2)N3)c2ccc(-c3cc(O)cc4ccccc34)cc2n1` [P-0023, 4-(4-((1R,5S)-3,8-diazabicyclo[3.2.1]octan-3-yl)-2-(2-(dimethylamino)ethoxy)quinazolin-7-yl)naphthalen-2-ol], the IC50 in assay [1] (KRAS G12D) is 0.0001 to 10 µM; in assay [1] (Table 4, comparison with compounds of WO 2017/172979) it was 0.29 µM; in assay [2] it was 10 to 100 µM. Besides, in assay [1] (Table 4, fold more potent than the compared compound of WO 2017/172979), the “Improved KRAS G12D Biochemical Potency of Compounds with Bridged vs Non-Bridged R^1 Groups” value was “P-0023 is about 57 times more potent than Compound 149 in WO 2017/172979”.
Turning to `C=Cc1cc2c(N3C[C@H]4CC[C@@H](C3)N4)nc(OC[C@@H]3CCCN3C)nc2c(F)c1-c1cc(O)cc2ccccc12` [P-0036, 4-[4-(3,8-Diazabicyclo[3.2.1]octan-3-yl)-8-fluoro-2-[[(2S)-1-methylpyrrolidin-2-yl]methoxy]-6-vinyl-quinazolin-7-yl]naphthalen-2-ol], the IC50 in assay [1] (KRAS G12D) and in assay [2] was 0.0001 to 10 µM each time.
Regarding `CN1CCC[C@H]1COc1nc(N2CC3CCCC(C2)N3)c2cc(Cl)c(-c3cc(O)cc4ccccc34)c(F)c2n1` [P-0039, 4-(4-(3,9-diazabicyclo[3.3.1]nonan-3-yl)-6-chloro-8-fluoro-2-(((S)-1-methylpyrrolidin-2-yl)methoxy)quinazolin-7-yl)naphthalen-2-ol], the IC50 in assay [1] (KRAS G12D) and in assay [2] was 0.0001 to 10 µM in each case.
For the molecule `CN(C)C(=O)CCNc1nc(N2C[C@H]3CC[C@@H](C2)N3)c2ccc(-c3cc(O)cc4ccccc34)cc2n1` [P-0058, 3-((4-((1R,5S)-3,8-diazabicyclo[3.2.1]octan-3-yl)-7-(3-hydroxynaphthalen-1-yl)quinazolin-2-yl)amino)-N,N-dimethylpropanamide], the half-inhibitory concentration (IC50) in assay [1] (KRAS G12D) and in assay [2] was 10 to 100 µM throughout.
In the case of `CN(C)C(=O)CNc1nc(N2C[C@H]3CC[C@@H](C2)N3)c2ccc(-c3cc(O)cc4ccccc34)cc2n1` [P-0059, 2-((4-((1R,5S)-3,8-diazabicyclo[3.2.1]octan-3-yl)-7-(3-hydroxynaphthalen-1-yl)quinazolin-2-yl)amino)-N,N-dimethylacetamide], the IC50 in assay [1] (KRAS G12D) and in assay [2] was 10 to 100 µM throughout.
For `CNCCNc1nc(N2C[C@H]3CC[C@@H](C2)N3)c2ccc(-c3cc(O)cc4ccccc34)cc2n1` [P-0061, 4-(4-((1R,5S)-3,8-diazabicyclo[3.2.1]octan-3-yl)-2-((2-(methylamino)ethyl)amino)quinazo-lin-7-yl)naphthalen-2-ol], the IC50 was 0.0001 to 10 µM in assay [1] (KRAS G12D) and 100 to 1000 µM in assay [2].
Taken in the same sequence, the figures for `CC(CN)Oc1nc(N2C[C@H]3CC[C@@H](C2)N3)c2ccc(-c3cc(O)cc4ccccc34)cc2n1` (stereo partly drawn) [P-0062, 4-(2-((1-aminopropan-2-yl)oxy)-4-((1R,5S)-3,8-diazabicyclo[3.2.1]octan-3-yl)quinazolin-7-yl)naphthalen-2-ol] were 0.0001 to 10 µM and 10 to 100 µM.
As for `CN1CCC[C@H]1COc1nc(N2C[C@H]3CC[C@@H](C2)O3)c2ccc(-c3cc(O)cc4ccccc34)c(F)c2n1` [P-0114, 4-(4-((1R,5S)-8-oxa-3-azabicyclo[3.2.1]octan-3-yl)-8-fluoro-2-(((S)-1-methylpyrrolidin-2-yl)methoxy)quinazolin-7-yl)naphthalen-2-ol], the IC50 in assay [1] (KRAS G12D) and in assay [2] was 0.0001 to 10 µM each time.
As to `CCc1cccc2[nH]cc(-c3ncc4c(N5C[C@H]6CC[C@@H](C5)N6)nc(OC[C@@]56CCCN5C[C@H](F)C6)nc4c3F)c12` [P-0505, 4-((1R,5S)-3,8-diazabicyclo[3.2.1]octan-3-yl)-7-(4-ethyl-1H-indol-3-yl)-8-fluoro-2-(((2R,7aS)-2-fluorotetrahydro-1H-pyrrolizin-7a(5H)-yl)methoxy)pyrido[4,3-d]pyrimidine], the IC50 in assay [1] (KRAS G12D) and in assay [2] was 0.0001 to 10 µM throughout.
For the molecule `Oc1cc(-c2ccc3c(N4C[C@H]5CC[C@@H](C4)N5)nc(N4CC(O)(C5CC5)C4)nc3c2F)c2ccccc2c1` [P-0636, 1-(4-((1R,5S)-3,8-diazabicyclo[3.2.1]octan-3-yl)-8-fluoro-7-(3-hydroxynaphthalen-1-yl)quinazolin-2-yl)-3-cyclopropylazetidin-3-ol], the IC50 in assay [1] (KRAS G12D) and in assay [2] was 0.0001 to 10 µM throughout.
Turning to `CCN(CC)C1CN(c2nc(N3C[C@H]4CC[C@@H](C3)N4)c3ccc(-c4cc(O)cc5ccccc45)c(F)c3n2)C1` [P-0637, 4-(4-((1R,5S)-3,8-diazabicyclo[3.2.1]octan-3-yl)-2-(3-(diethylamino)azetidin-1-yl)-8-fluoroquinazolin-7-yl)naphthalen-2-ol], the IC50 is 0.0001 to 10 µM in assay [1] (KRAS G12D) and 10 to 100 µM in assay [2].
Taken in the same sequence, the figures for `Oc1cc(-c2ccc3c(N4C[C@H]5CC[C@@H](C4)N5)nc(N4CC(N5CC(F)C5)C4)nc3c2F)c2ccccc2c1` [P-0638, 4-(4-((1R,5S)-3,8-diazabicyclo[3.2.1]octan-3-yl)-8-fluoro-2-(3-fluoro-[1,3′-biazetidin]-1′-yl)quinazolin-7-yl)naphthalen-2-ol] were 0.0001 to 10 µM and 10 to 100 µM.
Consider `Cc1cccc2cccc(-c3ccc4c(N5C[C@H]6CC[C@@H](C5)N6C(=O)CC#N)nc(OCC56CCCN5CCC6)nc4c3F)c12` [P-0813, 3-((1R,5S)-3-(8-fluoro-7-(8-methylnaphthalen-1-yl)-2-((tetrahydro-1H-pyrrolizin-7a(5H)-yl)methoxy)quinazolin-4-yl)-3,8-diazabicyclo[3.2.1]octan-8-yl)-3-oxopropanenitrile], for which the IC50 in assay [2] is 0.0001 to 10 µM.
